These results are taken from ChEMBL document CHEMBL3608297, “Structure-based de novo design and synthesis of aminothiazole-based p38 MAP kinase inhibitors” (Bioorg Med Chem Lett, 2015).

Each structure is given as a SMILES string.

The target of the assay is MAP kinase p38 (Homo sapiens, UniProt O15264+Q15759+Q16539+P53778). Briefly: Inhibition of p38 MAP kinase (unknown origin) by biochemical assay. Format: protein assay.
In turn, `O=C(c1cnc(Nc2cccc([N+](=O)[O-])c2)s1)c1ccccc1Cl` returned an IC50 of 1620 nM.
For `Nc1ccc(Nc2ncc(C(=O)c3ccccc3Cl)s2)cc1` the value was over 200000 nM.
`COc1ccc(Nc2ncc(C(=O)c3ccccc3Cl)s2)cc1` returned an IC50 of 1440 nM.
Compound `O=C(Nc1cccc(Nc2ncc(C(=O)c3ccccc3Cl)s2)c1F)c1ccccc1` displayed an IC50 of 1980 nM.
In turn, `O=C(c1cccc(O)c1)c1cnc(Nc2ccccc2)s1` had an IC50 of 1310 nM.
Consider `O=C(c1cnc(Nc2ccccc2F)s1)c1ccccc1Cl`, for which the IC50 turned out to be 790 nM.
`Nc1cccc(Nc2ncc(C(=O)c3ccccc3Cl)s2)c1` had an IC50 of 16200 nM.
`O=C(Nc1cccc(Nc2ncc(C(=O)c3ccccc3Cl)s2)c1)c1ccccc1` returned an IC50 of 1200 nM.
Compound `O=C(c1cnc(Nc2ccc(F)cc2F)s1)c1ccccc1Cl` registered an IC50 of 180 nM.
For `O=C(c1cnc(Nc2ccccc2)s1)c1ccccc1Cl` the value was 610 nM.
For `COc1cccc(C(=O)c2cnc(Nc3ccccc3)s2)c1` the value was 1230 nM.
Take `O=C(c1ccccc1)c1cnc(Nc2ccccc2)s1`: the IC50 came to 1070 nM.
For `O=C(c1cnc(Nc2ccccc2)s1)c1ccccc1Br` the value was 1070 nM.
As for `O=C(c1cnc(Nc2ccc(Br)cc2)s1)c1ccccc1Cl`, the figure is 940 nM.
For `O=C(c1cnc(Nc2ccc(Cl)cc2)s1)c1ccccc1Cl` the value was 910 nM; for `O=C(c1cnc(Nc2ccc(O)cc2)s1)c1ccccc1Cl`, 2040 nM.
Compound `Nc1cccc(Nc2ncc(C(=O)c3ccccc3Cl)s2)c1F` came in with an IC50 of 450 nM.
For `O=C(c1cnc(Nc2ccc(O)cc2F)s1)c1ccccc1Cl` the value was 250 nM; for `Cc1ccccc1C(=O)c1cnc(Nc2ccccc2)s1`, 116000 nM; for `O=C(c1cnc(Nc2ccc(F)cc2)s1)c1ccccc1Cl`, 330 nM.
`O=C(c1cnc(Nc2cccc([N+](=O)[O-])c2F)s1)c1ccccc1Cl` had an IC50 of 12700 nM.
